Laboratory results published in patent US20020044933A1, “Inhibition of intimal hyperplasia using antibodies to PDGF receptors” (priority 1993, published 2002).

Key:
[1] = system: rat smooth muscle cells; assay: Inhibition of PDGF-BB binding to rat smooth muscle cells
[2] = system: baboon smooth muscle cells; assay: Inhibition of PDGF mitogenic activity on baboon smooth muscle cells by non-peptidic antagonists; assay type: cell-based

O=C(/C=C/c1ccccc1)OC1C=CC2COC(=O)C2C1C(=O)O (stereo not shown) [92-0825]
inhibition of binding of PDGF-BB to rat smooth muscle cells [1]: inhibit binding
inhibition of PDGF-BB mitogenic activity on baboon smooth muscle cells [2]: inhibit PDGF-BB mitogenic activity

CC1CCCC=CC2CC(O)CC2C(O)C=CC(=O)O1 (stereo not shown) [Brefeldin A, 1,6,7,8,9,11a,12,13,14,14a-Decahydro-1,13-dihydroxy-6-methyl-4H-cyclopent[f]oxacyclotridecin-4-one]
inhibition of PDGF mitogenic activity on baboon smooth muscle cells [2]: inhibit
inhibition of PDGF mitogenic activity on baboon smooth muscle cells in the presence of heparin ([2]; with heparin): enhanced
